Data reported in patent US9139551B2, “Preparation of a new class of water-soluble ammonium 2,3-dihydroxy-5-((2R,3R)-3,5,7-trihydroxy-4-oxochroman-2-yl) phenolates and their biological activity of alcohol elimination” (priority 2014, dated 2015).
Marks after values point to notes of the source that are not given here.

Assays:
Balb/C mice [1] = test: Deintoxication test (agent 30 min before alcohol)
mice [2] = test: Acute toxicity, intragastric administration (maximum tolerated dose)
mice [3] = test: Acute toxicity, intraperitoneal administration (mortality, LD50, body weight, dietary); format: in vivo; details: for Dead number: 20 mice; for Dead number / mortality: 7 days
Description: Acute Toxicity • Compounds PDHM/TDHM.
140 mice were divided into 7 groups (n=20), each group include 10 males and 10 females, they were treated with different concentrations of dosages and observed for 7 days. Specific experimental groups and experimental results were noted below. Note: Section 1-6 group compound are PDHM groups, and group 7 is a negative control group.
140 mice were divided into 7 groups (n=20), each group include 10 males and 10 females, they were treated with different concentrations of dosage and observed for 7 days. Note: Section 1-6 group compound are PDHM groups, and group 7 is a negative control group.

Balb/C mice [4] = test: Anti-alcoholism test (agent 30 min after alcohol); format: in vivo
From the text: Anti-Alcoholism Tests • Groups design and treatment before experiment are as the same as that in Deintoxication test. […]

Balb/C mice [5] = test: Plasma EtOH concentration assay; format: in vivo; details: intragastric 2 mg/kg
Description: Plasma EtOH Concentration Assay. • Blood samples from the tail vein of mice at different time points (0, 15, 30, 45, 60, 90, 120, 240, 480 and 720 minutes) after EtOH (30% ethanol, 0.2 ml/kg bw) or TDHM (2 mg/kg bw), PDHM (2 mg/kg bw) or DHM (2 mg/kg bw) gavage were collected for plasma EtOH concentrations (plasma [EtOH]) assays. (“BW” or “bw”: body weight) • Briefly, the Balb/C mice were put into a restraint tube and the tail was warmed at 37° C. The tail vein at the tip of the tail was punched with a sharp blade. Approximately 0.2 ml venous blood was dropped to a capillary blood collection tube containing lithium heparin (Ram Scientific). Blood samples were centrifuged at 2500 rpm for 20 min. The supernatant was collected and stored at −80° C. until assay. The EtOH content of each blood sample was measured in duplicate along with EtOH standards using the alcohol oxidase reaction procedures (EnzyChrom™ Ethanol Acid Assay Kit, ECET-100) (Liang et al., 2007). The sample preparations were the same as described above.

Balb/C mice [6] = test: Climbing net test; format: in vivo; details: 2 mg/kg gavage 30 min before alcohol
Description: Climbing Net Test • Groups design and treatment before experiment are as the same as that in deintoxication test. […] 30 minutes later all mice administrated alcohol (liquid Erguotou, ethonol concentration was diluted to 30%) 0.2 mL/kg BW and placed on a vertical metal net and measured the time when mice climbed on net.

[7] = 2 mg/kg gavage 30 min before 30% ethanol
[8] = 2 mg/kg gavage 30 min before 30% ethanol, 20 mice
[9] = agents intragastric 30 minutes before drinking
[10] = 2 mg/kg gavage 30 min after 30% ethanol
[11] = 2 mg/kg gavage 30 min after 30% ethanol, 20 mice

triethylammonium 2,3-dihydroxy-5-((2R,3R)-3,5,7-trihydroxy-4-oxochroman-2-yl)phenolate [TDHM]
Sleep time M ± SD (Balb/C mice [1]; [7]): 69.29 ± 48.40 min | Tolerance time M ± SD (Balb/C mice [1]; [7]): 43.29 ± 23.44 min | Dead number (Balb/C mice [1]; [8]): 0 piece | Rate of drunk (Balb/C mice [1]; [8]): 0% | holding time comparing with DHM (Balb/C mice [1]; [9]): shorten | tolerance time of righting reflex disappearing comparing with DHM (Balb/C mice [1]; [9]): obviously prolonged | pathological examination of stomach, liver, kidney (mice [2]; mice at MTD, end of 7-day observation): no obvious degeneration, necrosis and other changes | pathology changes in livers, kidneys, hearts and lungs (mice [2]; mice of the toxicity experiments): No degeneration and necrosis pathology changes | deaths during the observation period at MTD (mice [2]; mice, gavage three times a day, 7 days): No deaths | Dead number (mice [3]; TDHM 636 mg/kg i.p.): 0 | mortality (mice [3]; TDHM 636 mg/kg i.p.): 0% | average dietary of mice (mice [3]; TDHM 636 mg/kg i.p., D1): 3.62 g | average dietary of mice (mice [3]; TDHM 636 mg/kg i.p., D2): 4.67 g | average dietary of mice (mice [3]; TDHM 636 mg/kg i.p., D3): 5.33 g | average dietary of mice (mice [3]; TDHM 636 mg/kg i.p., D4): 6.4 g | average dietary of mice (mice [3]; TDHM 636 mg/kg i.p., D5): 5.53 g | average dietary of mice (mice [3]; TDHM 636 mg/kg i.p., D6): 5.18 g | average dietary of mice (mice [3]; TDHM 636 mg/kg i.p., D7): 5.44 g | Dead number (mice [3]; TDHM 674.16 mg/kg i.p.): 4 | mortality (mice [3]; TDHM 674.16 mg/kg i.p.): 20% | average dietary of mice (mice [3]; TDHM 674.16 mg/kg i.p., D1): 3.96 g | average dietary of mice (mice [3]; TDHM 674.16 mg/kg i.p., D2): 4.8 g | average dietary of mice (mice [3]; TDHM 674.16 mg/kg i.p., D3): 6.7 g | average dietary of mice (mice [3]; TDHM 674.16 mg/kg i.p., D4): 6.98 g | average dietary of mice (mice [3]; TDHM 674.16 mg/kg i.p., D5): 5.58 g | average dietary of mice (mice [3]; TDHM 674.16 mg/kg i.p., D6): 5.58 g | average dietary of mice (mice [3]; TDHM 674.16 mg/kg i.p., D7): 5.73 g | Dead number (mice [3]; TDHM 714.61 mg/kg i.p.): 4 | mortality (mice [3]; TDHM 714.61 mg/kg i.p.): 20% | average dietary of mice (mice [3]; TDHM 714.61 mg/kg i.p., D1): 3.62 g | average dietary of mice (mice [3]; TDHM 714.61 mg/kg i.p., D2): 5.42 g | average dietary of mice (mice [3]; TDHM 714.61 mg/kg i.p., D3): 6.55 g | average dietary of mice (mice [3]; TDHM 714.61 mg/kg i.p., D4): 7.06 g | average dietary of mice (mice [3]; TDHM 714.61 mg/kg i.p., D5): 5.49 g | average dietary of mice (mice [3]; TDHM 714.61 mg/kg i.p., D6): 5.17 g | average dietary of mice (mice [3]; TDHM 714.61 mg/kg i.p., D7): 5.2 g | Dead number (mice [3]; TDHM 757.49 mg/kg i.p.): 8 | mortality (mice [3]; TDHM 757.49 mg/kg i.p.): 40% | average dietary of mice (mice [3]; TDHM 757.49 mg/kg i.p., D1): 3.95 g | average dietary of mice (mice [3]; TDHM 757.49 mg/kg i.p., D2): 5.3 g | average dietary of mice (mice [3]; TDHM 757.49 mg/kg i.p., D3): 7.08 g | average dietary of mice (mice [3]; TDHM 757.49 mg/kg i.p., D4): 8.18 g | average dietary of mice (mice [3]; TDHM 757.49 mg/kg i.p., D5): 5.78 g | average dietary of mice (mice [3]; TDHM 757.49 mg/kg i.p., D6): 5.83 g | average dietary of mice (mice [3]; TDHM 757.49 mg/kg i.p., D7): 6.25 g | Dead number (mice [3]; TDHM 802.94 mg/kg i.p.): 18 | mortality (mice [3]; TDHM 802.94 mg/kg i.p.): 90% | average dietary of mice (mice [3]; TDHM 802.94 mg/kg i.p., D1): 4.6 g | average dietary of mice (mice [3]; TDHM 802.94 mg/kg i.p., D2): 7.66 g | average dietary of mice (mice [3]; TDHM 802.94 mg/kg i.p., D3): 7.08 g | average dietary of mice (mice [3]; TDHM 802.94 mg/kg i.p., D4): 9.04 g | average dietary of mice (mice [3]; TDHM 802.94 mg/kg i.p., D5): 6.89 g | average dietary of mice (mice [3]; TDHM 802.94 mg/kg i.p., D6): 6.23 g | average dietary of mice (mice [3]; TDHM 802.94 mg/kg i.p., D7): 6.27 g | Dead number (mice [3]; TDHM 851.11 mg/kg i.p.): 20 | mortality (mice [3]; TDHM 851.11 mg/kg i.p.): 100% | average dietary of mice (mice [3]; TDHM 851.11 mg/kg i.p., D1): 0 g | average dietary of mice (mice [3]; TDHM 851.11 mg/kg i.p., D2): 0 g | average dietary of mice (mice [3]; TDHM 851.11 mg/kg i.p., D3): 0 g | average dietary of mice (mice [3]; TDHM 851.11 mg/kg i.p., D4): 0 g | average dietary of mice (mice [3]; TDHM 851.11 mg/kg i.p., D5): 0 g | average dietary of mice (mice [3]; TDHM 851.11 mg/kg i.p., D6): 0 g | average dietary of mice (mice [3]; TDHM 851.11 mg/kg i.p., D7): 0 g | effect on dietary and body weight (mice [3]; mice): no significant effect | LD50 (mice [3]; mice, i.p., observed 7 days): 748.69 mg/kg | Sleep time M ± SD (Balb/C mice [4]; [10]): 99.29 ± 19.23*^& min | Tolerance time M ± SD (Balb/C mice [4]; [10]): 26.28 ± 17.49 min | Dead number (Balb/C mice [4]; [11]): 0 piece | Rate of drunk (Balb/C mice [4]; [11]): 0% | sleep time in drunk mice comparing with DHM (Balb/C mice [4]; 2 mg/kg gavage 30 min after alcohol): remarkably shorten | blood alcohol concentration vs control group treated with saline (Balb/C mice [5]): significantly decreased | reduction of blood alcohol concentration compared with DHM (Balb/C mice [5]): better beneficial effect than DHM | climbing time vs normal control mice (Balb/C mice [6]): significantly prolonged | climbing (Balb/C mice [6]; vertical metal net): 471.5 ± 155.89 min
